Columns and labels:
[1] = Cytotoxicity assay (alamarBlue); format: cell-based, murine; settings: mouse; 24 h, 37 °C; read-out: CC50, toxicity against murine macrophage J774.A1
Experimental: The antiamoeboid activity of the compounds was evaluated against Acanthamoeba castellanii Neff (ATCC 30010) type strain from the American Type Culture Collection. This strain was axenically incubated in PYG medium (0.75% (w/v) proteose Peptone, 0.75% (w/v) Yeast extract, and 1.5% (w/v) Glucose) supplemented with 10 µg/mL gentamicin (Sigma-Aldrich, Madrid, Spain). As for the cytotoxicity assays, murine macrophages J774A.1 (ATCC TIB-67) were used, cultivated in DMEM medium (Dulbecco’s modified eagle medium, Gibco Life Technologies, California, USA) with 10% supplement of fetal bovine serum (FBS) and 10 µg/mL gentamicin at 37 °C in a 5% CO2 incubator.
The cytotoxicity of the tested compounds was determined in vitro with murine macrophages (J774A.1). For this assay, the DMEM culture medium was changed from RPMI without phenol red (Roswell Park Memorial Institute, Thermo Fisher Scientific Inc., Waltham, MA, USA) to L-Glutamine supplemented with 10% (v/v) inactivated FBS and with 10 µg/mL gentamicin. In this assay, the macrophages were counted and seeded into a 96-well microtiter plate, adding 50 µL to each well from a stock solution of 2 × 10^5 cells/mL. Cells were then left to adhere for 15 min to the plate bottom and were checked with the inverted microscope Leica DMIL. After that, 50 µL of a serial dilution of the compounds was added to the 96-well microtiter plate. Finally, alamarBlue™ was added into each well at an amount equal to 10% of the final volume and incubated at 37 °C in the presence of CO2 at 5% for 24 h. After this period of time, as in the in vitro anti-Acanthamoeba assay, the fluorescence was determined with an EnSpire Multimode Plate Reader (PerkinElmer, Inc, Waltham, MA, USA) at a wavelength of 570/585 nm. The cytotoxicity concentration to inhibit the growth of 50% of murine macrophages (CC50) was calculated through nonlinear regression analysis with 95% confidence limits using the software Sigma Plot 12.0 (Systat Software, Inc, San Jose, CA 95110 USA). Experiments were performed three times each, allowing for standard deviation.

[2] = system: Acanthamoeba castellanii Neff cysts; experiment: In vitro activity against Acanthamoeba castellanii Neff cysts (alamarBlue); format: cell-based; settings: 168 h, mature cysts, 7 d incubation, read-out: IC50, cysticidal activity against A. castellanii Neff
Experimental: The cysticidal activity of DT was determined by the alamarBlue™ assay and confirmed visually by inverted microscopy. Cysts of A. castellanii Neff were prepared as previously described. Briefly, trophozoites were transferred from PYG medium based cultures (trophozoite medium) to Neff’s encystment medium (NEM; 0.1 M KCl, 8 mM MgSO4·7H2O, 0.4 mM CaCl2·2H2O, 1 mM NaHCO3, 20 mM ammediol (2-amino-2-methyl-1,3-propanediol; Sigma Aldrich, Madrid, Spain), pH 8.8 at 25 °C) and were cultured in this medium with gentle shaking for a week in order to obtain mature cysts. After that, mature cysts were harvested and washed twice using PYG medium.
A serial dilution of the tested molecules was made in PYG. The in vitro susceptibility assay was performed in sterile 96-well microtiter plates (Corning™). To these wells, containing 50 µL of drug dilutions, 5 × 10^4 mature cysts of Acanthamoeba/mL were added. After 7 d of incubation with the drugs, the plate was centrifuged at 3000 rpm for 10 min. The supernatant was removed and replaced with 100 µL of fresh PYG medium in each well. Finally, 10 μL of the Alamar Blue Assay Reagent (Biosource, Europe, Nivelles, Belgium) was placed into each well, and the plates were then incubated for 144 h at 28 °C. The emitted fluorescence was periodically examined with an Enspire microplate reader (PerkinElmer, Waltham, MA, USA) at 570/585 nm.

Work on `C=C(CC[C@H](O)[C@@]1(C)CC[C@H](C(C)(C)O)O1)[C@H]1CC[C@H]2O[C@@H]([C@]3(C)CC[C@@H](Br)C(C)(C)O3)CC[C@]2(C)O1` [Compound 1, dehydrothyrsiferol] yielded a CC50 [1] of 28.8 ± 3.1 µM and an IC50 [2] of 39.27 ± 0.14 µM.

Reference: paper PMC6669608, “Evaluation of Oxasqualenoids from the Red Alga Laurencia viridis against Acanthamoeba” (Marine Drugs, 2019)
